Results taken from ChEMBL document CHEMBL1697781, “Assessment of the health effects of chemicals in humans: II. Construction of an adverse effects database for QSAR modeling” (Curr Drug Discov Technol, 2004).

Each compound was assayed on Hepatotoxicity (assay: FDA HLAED, serum glutamic oxaloacetic transaminase (SGOT) increase). Conditions: human.
For GGT Increase - Index Value in this document: reference of the scale not given here.
For LDH Increase - Index Value in this document: reference of the scale not given here.

Row | SMILES | SGOT Increase - Activity Score | SGOT Increase - Index Value | SGOT Increase - Number of Reports
1 | N=C(N)NCC1COC2(CCCCC2)O1 (configuration not stated) | Inactive | 0 | < 4
2 | CCCCC(=O)N(Cc1ccc(-c2ccccc2-c2nnn[nH]2)cc1)[C@H](C(=O)O)C(C)C | Inactive | 5 | < 4
3 | CC(C)(C)NC(=O)[C@@H]1C[C@@H]2CCCC[C@@H]2CN1C[C@@H](O)[C@H](Cc1ccccc1)NC(=O)[C@H](CC(N)=O)NC(=O)c1ccc2ccccc2n1 | Inactive | 0 | < 4
4 | COc1ccc(-c2ccc3cc(C(=O)O)ccc3c2)cc1C12CC3CC(CC(C3)C1)C2 | Inactive | 0 | < 4
5 | CNS(=O)(=O)Cc1ccc2[nH]cc(CCN(C)C)c2c1 | Inactive | 0.3 | >= 4
6 | COc1ccc(CC2c3cc(OC)c(OC)cc3CC[N+]2(C)CCC(=O)OCCCCCOC(=O)CC[N+]2(C)CCc3cc(OC)c(OC)cc3C2Cc2ccc(OC)c(OC)c2)cc1OC (configuration not stated) | Inactive | 0 | < 4
7 | CO/N=C(\C(=O)N[C@@H]1C(=O)N2C(C(=O)[O-])=C(C[N+]3(C)CCCC3)CS[C@H]12)c1csc(N)n1 | Inactive | 13.7 | < 4
8 | CC(C)(C)NC(=O)[C@@H]1CN(Cc2cccnc2)CCN1C[C@@H](O)C[C@@H](Cc1ccccc1)C(=O)N[C@H]1c2ccccc2C[C@H]1O.O | Active | 137 | >= 4
9 | C=C1CC[C@@]2(O)[C@H]3Cc4ccc(O)c5c4[C@@]2(CCN3CC2CC2)[C@H]1O5 | Inactive | 0 | < 4

The compounds below were run on Hepatotoxicity (assay: FDA HLAED, liver enzyme composite activity). Conditions: human.

Row | SMILES | Composite Activity - Active | Composite Activity - Marginal | Composite Activity - Score
10 | N=C(N)NCC1COC2(CCCCC2)O1 (configuration not stated) | 0 | 0 | Inactive
11 | CCCCC(=O)N(Cc1ccc(-c2ccccc2-c2nnn[nH]2)cc1)[C@H](C(=O)O)C(C)C | 0 | 0 | Inactive
12 | COc1ccc(-c2ccc3cc(C(=O)O)ccc3c2)cc1C12CC3CC(CC(C3)C1)C2 | 0 | 0 | Inactive
13 | CNS(=O)(=O)Cc1ccc2[nH]cc(CCN(C)C)c2c1 | 0 | 0 | Inactive
14 | COc1ccc(CC2c3cc(OC)c(OC)cc3CC[N+]2(C)CCC(=O)OCCCCCOC(=O)CC[N+]2(C)CCc3cc(OC)c(OC)cc3C2Cc2ccc(OC)c(OC)c2)cc1OC (configuration not stated) | 0 | 0 | Inactive
15 | CO/N=C(\C(=O)N[C@@H]1C(=O)N2C(C(=O)[O-])=C(C[N+]3(C)CCCC3)CS[C@H]12)c1csc(N)n1 | 1 | 0 | Inactive
16 | CC(C)(C)NC(=O)[C@@H]1CN(Cc2cccnc2)CCN1C[C@@H](O)C[C@@H](Cc1ccccc1)C(=O)N[C@H]1c2ccccc2C[C@H]1O.O | 5 | 0 | Active
17 | C=C1CC[C@@]2(O)[C@H]3Cc4ccc(O)c5c4[C@@]2(CCN3CC2CC2)[C@H]1O5 | 0 | 0 | Inactive

Same assay, conditions: human, Liver

Row | SMILES | Composite Activity - Active | Composite Activity - Marginal | Composite Activity - Score
18 | CC(C)(C)NC(=O)[C@@H]1C[C@@H]2CCCC[C@@H]2CN1C[C@@H](O)[C@H](Cc1ccccc1)NC(=O)[C@H](CC(N)=O)NC(=O)c1ccc2ccccc2n1 | 0 | 0 | Inactive

Each compound was assayed on Hepatotoxicity (assay: FDA HLAED, serum glutamic pyruvic transaminase (SGPT) increase). Conditions: human.

Row | SMILES | SGPT Increase - Activity Score | SGPT Increase - Index Value | SGPT Increase - Number of Reports
19 | N=C(N)NCC1COC2(CCCCC2)O1 (configuration not stated) | Inactive | 0 | < 4
20 | CCCCC(=O)N(Cc1ccc(-c2ccccc2-c2nnn[nH]2)cc1)[C@H](C(=O)O)C(C)C | Inactive | 7.6 | < 4
21 | CC(C)(C)NC(=O)[C@@H]1C[C@@H]2CCCC[C@@H]2CN1C[C@@H](O)[C@H](Cc1ccccc1)NC(=O)[C@H](CC(N)=O)NC(=O)c1ccc2ccccc2n1 | Inactive | 0 | < 4
22 | COc1ccc(-c2ccc3cc(C(=O)O)ccc3c2)cc1C12CC3CC(CC(C3)C1)C2 | Inactive | 0 | < 4
23 | CNS(=O)(=O)Cc1ccc2[nH]cc(CCN(C)C)c2c1 | Inactive | 0.3 | >= 4
24 | COc1ccc(CC2c3cc(OC)c(OC)cc3CC[N+]2(C)CCC(=O)OCCCCCOC(=O)CC[N+]2(C)CCc3cc(OC)c(OC)cc3C2Cc2ccc(OC)c(OC)c2)cc1OC (configuration not stated) | Inactive | 0 | < 4
25 | CO/N=C(\C(=O)N[C@@H]1C(=O)N2C(C(=O)[O-])=C(C[N+]3(C)CCCC3)CS[C@H]12)c1csc(N)n1 | Active | 68.4 | >= 4
26 | CC(C)(C)NC(=O)[C@@H]1CN(Cc2cccnc2)CCN1C[C@@H](O)C[C@@H](Cc1ccccc1)C(=O)N[C@H]1c2ccccc2C[C@H]1O.O | Active | 116.4 | >= 4
27 | C=C1CC[C@@]2(O)[C@H]3Cc4ccc(O)c5c4[C@@]2(CCN3CC2CC2)[C@H]1O5 | Inactive | 0 | < 4

Each compound was assayed on Hepatotoxicity (assay: FDA HLAED, gamma-glutamyl transferase (GGT) increase). Conditions: human.

Row | SMILES | GGT Increase - Activity Score | GGT Increase - Index Value | GGT Increase - Number of Reports
28 | N=C(N)NCC1COC2(CCCCC2)O1 (configuration not stated) | Inactive | 0 | < 4
29 | CCCCC(=O)N(Cc1ccc(-c2ccccc2-c2nnn[nH]2)cc1)[C@H](C(=O)O)C(C)C | Inactive | 2.5 | < 4
30 | CC(C)(C)NC(=O)[C@@H]1C[C@@H]2CCCC[C@@H]2CN1C[C@@H](O)[C@H](Cc1ccccc1)NC(=O)[C@H](CC(N)=O)NC(=O)c1ccc2ccccc2n1 | Inactive | 0 | < 4
31 | COc1ccc(-c2ccc3cc(C(=O)O)ccc3c2)cc1C12CC3CC(CC(C3)C1)C2 | Inactive | 0 | < 4
32 | CNS(=O)(=O)Cc1ccc2[nH]cc(CCN(C)C)c2c1 | Inactive | 0.1 | < 4
33 | COc1ccc(CC2c3cc(OC)c(OC)cc3CC[N+]2(C)CCC(=O)OCCCCCOC(=O)CC[N+]2(C)CCc3cc(OC)c(OC)cc3C2Cc2ccc(OC)c(OC)c2)cc1OC (configuration not stated) | Inactive | 0 | < 4
34 | CO/N=C(\C(=O)N[C@@H]1C(=O)N2C(C(=O)[O-])=C(C[N+]3(C)CCCC3)CS[C@H]12)c1csc(N)n1 | Inactive | 27.4 | < 4
35 | CC(C)(C)NC(=O)[C@@H]1CN(Cc2cccnc2)CCN1C[C@@H](O)C[C@@H](Cc1ccccc1)C(=O)N[C@H]1c2ccccc2C[C@H]1O.O | Active | 13.7 | < 4
36 | C=C1CC[C@@]2(O)[C@H]3Cc4ccc(O)c5c4[C@@]2(CCN3CC2CC2)[C@H]1O5 | Inactive | 0 | < 4

These compounds were tested on Hepatotoxicity (assay: FDA HLAED, alkaline phosphatase increase). Conditions: human.

Row | SMILES | Alkaline Phosphatase Increase - Activity Score | Alkaline Phosphatase Increase - Index Value | Alkaline Phosphatase Increase - Number of Reports
37 | N=C(N)NCC1COC2(CCCCC2)O1 (configuration not stated) | Inactive | 0 | < 4
38 | CCCCC(=O)N(Cc1ccc(-c2ccccc2-c2nnn[nH]2)cc1)[C@H](C(=O)O)C(C)C | Inactive | 0 | < 4
39 | CC(C)(C)NC(=O)[C@@H]1C[C@@H]2CCCC[C@@H]2CN1C[C@@H](O)[C@H](Cc1ccccc1)NC(=O)[C@H](CC(N)=O)NC(=O)c1ccc2ccccc2n1 | Inactive | 0 | < 4
40 | COc1ccc(-c2ccc3cc(C(=O)O)ccc3c2)cc1C12CC3CC(CC(C3)C1)C2 | Inactive | 0 | < 4
41 | CNS(=O)(=O)Cc1ccc2[nH]cc(CCN(C)C)c2c1 | Inactive | 0.1 | >= 4
42 | COc1ccc(CC2c3cc(OC)c(OC)cc3CC[N+]2(C)CCC(=O)OCCCCCOC(=O)CC[N+]2(C)CCc3cc(OC)c(OC)cc3C2Cc2ccc(OC)c(OC)c2)cc1OC (configuration not stated) | Inactive | 0 | < 4
43 | CO/N=C(\C(=O)N[C@@H]1C(=O)N2C(C(=O)[O-])=C(C[N+]3(C)CCCC3)CS[C@H]12)c1csc(N)n1 | Inactive | 1 | < 4
44 | CC(C)(C)NC(=O)[C@@H]1CN(Cc2cccnc2)CCN1C[C@@H](O)C[C@@H](Cc1ccccc1)C(=O)N[C@H]1c2ccccc2C[C@H]1O.O | Active | 54.8 | >= 4
45 | C=C1CC[C@@]2(O)[C@H]3Cc4ccc(O)c5c4[C@@]2(CCN3CC2CC2)[C@H]1O5 | Inactive | 0 | < 4

What follows are compounds tested on Hepatotoxicity (assay: FDA HLAED, lactate dehydrogenase (LDH) increase). Conditions: human.

Row | SMILES | LDH Increase - Activity Score | LDH Increase - Index Value | LDH Increase - Number of Reports
46 | N=C(N)NCC1COC2(CCCCC2)O1 (configuration not stated) | Inactive | 0 | < 4
47 | CCCCC(=O)N(Cc1ccc(-c2ccccc2-c2nnn[nH]2)cc1)[C@H](C(=O)O)C(C)C | Inactive | 0 | < 4
48 | CC(C)(C)NC(=O)[C@@H]1C[C@@H]2CCCC[C@@H]2CN1C[C@@H](O)[C@H](Cc1ccccc1)NC(=O)[C@H](CC(N)=O)NC(=O)c1ccc2ccccc2n1 | Inactive | 0 | < 4
49 | COc1ccc(-c2ccc3cc(C(=O)O)ccc3c2)cc1C12CC3CC(CC(C3)C1)C2 | Inactive | 0 | < 4
50 | CNS(=O)(=O)Cc1ccc2[nH]cc(CCN(C)C)c2c1 | Inactive | 0.1 | >= 4
51 | COc1ccc(CC2c3cc(OC)c(OC)cc3CC[N+]2(C)CCC(=O)OCCCCCOC(=O)CC[N+]2(C)CCc3cc(OC)c(OC)cc3C2Cc2ccc(OC)c(OC)c2)cc1OC (configuration not stated) | Inactive | 0 | < 4
52 | CO/N=C(\C(=O)N[C@@H]1C(=O)N2C(C(=O)[O-])=C(C[N+]3(C)CCCC3)CS[C@H]12)c1csc(N)n1 | Inactive | 27.4 | < 4
53 | CC(C)(C)NC(=O)[C@@H]1CN(Cc2cccnc2)CCN1C[C@@H](O)C[C@@H](Cc1ccccc1)C(=O)N[C@H]1c2ccccc2C[C@H]1O.O | Active | 44.5 | >= 4
54 | C=C1CC[C@@]2(O)[C@H]3Cc4ccc(O)c5c4[C@@]2(CCN3CC2CC2)[C@H]1O5 | Inactive | 0 | < 4
